“And” between values parts separate entries of the source, which are not always exact repeats. Equal entries are not always repeated. Structures can show the parent of a compound that is named as a salt. Where two headings read alike, the source gives them in different places.
Legend:
[1] = Evaluation of stability (residual ratio of compound A after storage, HPLC-UV); assay type: physicochemical
Description: Evaluation of the decomposed product during storage: Approximately 5 mg of a sample was metered into a 10 mL glass mass flask, and a test was carried out in the following storage conditions.
Condition 1: 40° C.—relative humidity 75%—opening—3 months
Condition 2: 70° C.—light shielding—sealing—2 weeks
Condition 3: 25° C.—D65 (1000 lux)—sealing—2 weeks
A dissolution solvent was filled to a marked line in a mess flask including the sample after storage, the dissolved solution was taken as a sample solution, and the compound A in the sample solution was quantified. Furthermore, the detection of the compound A was carried out with UV at 254 nm and the handling of the devices including data processing was conducted in accordance to the methods and procedures as indicated in each device. (Device: LC-1100 Series manufactured by Agilent).
Further, the quantitative value indicates the residual ratio of the compound A after the test to the compound A before the test.

[2] = Evaluation of hygroscopicity (dynamic steam adsorption/desorption); assay type: physicochemical
Description: Approximately 10 mg of a sample was placed in an exclusively-used quartz-made holder and measured under the conditions of a temperature: 25° C., a measurement range: relative humidity 5 to 95%, a measurement interval: relative humidity 5%. Furthermore, the handling of the devices including data processing was conducted in accordance to the methods and procedures as indicated in each device. (Device: dynamic steam adsorption/desorption measuring device SGA-100, manufactured by VTI).
Measuring temperature: 25° C.; drying before measurement: not done; humidity at the beginning: 5% RH; maximum humidity: 95% RH; humidity at the end: 5% RH; step: 5% RH; equilibrium standard: 0.03 wt % in 5 min; maximum equilibrated time: 180 min; sampling interval: 20 sec; data recording interval: 1 min

[3] = system: L5/L6 spinal nerve ligation models; assay: L5/L6 spinal nerve ligation model of neuropathic pain, von Frey Test; assay type: in vivo, male SD rats
Description: The evaluation of an analgesic effect on neuropathic pain was performed according to the method of Kim et al. using L5/L6 spinal nerve ligation models. That is, the left L5 and L6 […] nerves of male SD rats were tightly ligated with a silk thread under pentobarbital anesthesia, and thereafter, the evaluation was performed. As the assessment of pain behavior, a von Frey Test on the plantar surface of the animals was employed (Pain, 1992, Vol. 50, p. 355-363). That is, the plantar surface of the operated limb of the nerve ligation rat was stimulated by using von Frey filaments until a withdrawal response was observed, and the lowest amount of force (g) required to elicit withdrawal response was defined as a pain threshold. The evaluation of compounds was performed in a period between 7 and 14 days after the operation in which a decrease in the threshold was stably observed. On the previous day of the evaluation of compounds, a von Frey Test was performed and the rats were grouped so as to minimize the variation in the mean value of pain threshold. Each of a solvent (vehicle) and a diluted solution obtained by diluting compound A hydrochloride as a compound A with a solvent so as to give a dose of 30 mg/kg was orally administered to rats in each group. Distilled water was used as a solvent. A pain threshold was measured at 1 hour after administration. […]

[4] = cited from earlier work
[5] = 25° C., relative humidity 5 to 95%
[6] = Condition 1: 40° C., relative humidity 75%, opening, 3 months
[7] = Condition 2: 70° C., light shielding, sealing, 2 weeks
[8] = Condition 3: 25° C., D65 (1000 lux), sealing, 2 weeks

C1=Cc2cccc(OC[C@H]3CNCCO3)c2C1.O=S(=O)(O)c1ccccc1 [Benzenesulfonate (α), (R)-2-[(1H-inden-7-yloxy)methyl]morpholine benzenesulfonate]
Quantitative Values (%) (residual ratio of the compound A) ([1]; benzenesulfonate): 101% and 100% and 94%
Weight change(%) [2, 5]: <0.1%

C1=Cc2cccc(OCC3CNCCO3)c2C1 (single isomer, unassigned; (+)) [Hydrochloride, (+)-2-[(inden-7-yloxy)methyl]morpholine]
Quantitative Values (%) (residual ratio of the compound A) [1, 6]: 55%
Quantitative Values (%) (residual ratio of the compound A) [1, 7]: 100%
Quantitative Values (%) (residual ratio of the compound A) [1, 8]: 52%
Effect on pain threshold of operated side paw ([3]; 30 mg/kg orally): improved the pain threshold in the operated side of paw to the same level as that in the normal paw
% Effect (recovery ratio of pain threshold) ([3]; 30 mg/kg, p.o., 1 hour after administration, mean ± SEM, normal side paw 100%, operated side paw 0%): 94.5 ± 17.0 %
Relative humidity from which remarkably hygroscopic ([2]; 25° C., FIG. 1): around 75%
Deliquescence accompanying weight change [2, 5]: accompanied by deliquescence
Weight change(%) [2, 5]: 48.5 (accompanied %
Weight change(%) ([2]; 25° C., relative humidity 5 to 95%, listed as hydrochloride of the compound A): 50%
Relative humidity at which deliquescent ([2]; room temperature): approximately 75%

Br.C1=Cc2cccc(OC[C@H]3CNCCO3)c2C1 [Hydrobromide (α)]
Quantitative Values (%) (residual ratio of the compound A) [1, 6]: 98%
Quantitative Values (%) (residual ratio of the compound A) [1, 7]: 97%
Quantitative Values (%) (residual ratio of the compound A) [1, 8]: 69%
Weight change(%) [2, 5]: 12.5%

C1=Cc2cccc(OCC3CNCCO3)c2C1.Cl (racemic) [Indeloxazine hydrochloride]
Stability under normal conditions ([4]; room temperature, tightly closed, light shielding, 36 months): stable
Weight increase by hygroscopicity ([4]; stored at relative humidity 93% for 14 days at around room temperature): substantially no weight increase

C1=Cc2cccc(OC[C@H]3CNCCO3)c2C1.O=S(=O)(O)c1ccccc1 [Benzenesulfonate (β)]
Quantitative Values (%) (residual ratio of the compound A) [1]: 95% and 84% and 74%
Weight change(%) [2, 5]: 1.2%

C1=Cc2cccc(OC[C@H]3CNCCO3)c2C1.O=S(=O)(O)c1ccccc1 [benzenesulfonate]
Weight change(%) [2]: substantially no weight change

— patent US20110166348A1, “NOVEL SALT OF MORPHOLINE DERIVATIVE” (ASTELLAS PHARMA INC., priority 2008, published 2011)
